Measurements: patent US12077503B2, “Substituted cyclic amides and their use as herbicides” (FMC CORPORATION, priority 2015, dated 2024)

How the values were obtained:
Assay type in all cases: in vivo
[1] = system: wheat (Triticum aestivum); assay: Test A postemergence; conditions: for Wheat plant response rating: 125 g ai/ha, visual injury rating on 0 to 100 scale (0 no effect, 100 complete control), approx. 10 d; for Plant response rating, Wheat: 500 g ai/ha
In short: (§1)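 Seeds sprayed preemergence with a directed soil spray, or plants at 2 to 10 cm height and one- to two-leaf stage sprayed postemergence, with test chemicals in a non-phytotoxic solvent mixture containing surfactant, in loam soil–sand blend. Injury rated visually against untreated controls after about 10 d in greenhouse, 0 (no effect) to 100 (complete control).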

[2] = system: pigweed (Amaranthus retroflexus); assay: Test A postemergence; conditions: for Pigweed plant response rating: 125 g ai/ha, visual injury rating on 0 to 100 scale (0 no effect, 100 complete control), approx. 10 d; for Plant response rating, Pigweed: 500 g ai/ha
In short: as §1

[3] = system: barnyardgrass (Echinochloa crus-galli); assay: Test A postemergence; conditions: for Barnyardgrass plant response rating: 125 g ai/ha, visual injury rating on 0 to 100 scale (0 no effect, 100 complete control), approx. 10 d; for Plant response rating, Barnyardgrass: 500 g ai/ha
In short: as §1

[4] = system: ryegrass, Italian (Italian ryegrass, Lolium multiflorum); assay: Test A postemergence; conditions: for Ryegrass, Italian plant response rating: 125 g ai/ha, visual injury rating on 0 to 100 scale (0 no effect, 100 complete control), approx. 10 d; for Plant response rating, Ryegrass, Italian: 500 g ai/ha
In short: as §1

[5] = system: Galium (catchweed bedstraw, Galium aparine); assay: Test A postemergence; conditions: for Galium plant response rating: 125 g ai/ha, visual injury rating on 0 to 100 scale (0 no effect, 100 complete control), approx. 10 d; for Plant response rating, Galium: 500 g ai/ha
In short: as §1

corn (Zea mays) = assay: Test A postemergence; conditions: for Corn plant response rating: 125 g ai/ha, visual injury rating on 0 to 100 scale (0 no effect, 100 complete control), approx. 10 d; for Plant response rating, Corn: 500 g ai/ha
In short: as §1

[6] = system: blackgrass (Alopecurus myosuroides); assay: Test A postemergence; conditions: for Blackgrass plant response rating: 125 g ai/ha, visual injury rating on 0 to 100 scale (0 no effect, 100 complete control), approx. 10 d; for Plant response rating, Blackgrass: 500 g ai/ha
In short: as §1

[7] = system: ragweed (common ragweed, Ambrosia elatior); assay: Test A postemergence; conditions: for Ragweed plant response rating: 125 g ai/ha, visual injury rating on 0 to 100 scale (0 no effect, 100 complete control), approx. 10 d; for Plant response rating, Ragweed: 500 g ai/ha
In short: as §1

[8] = system: giant foxtail (Setaria faberii); assay: Test A postemergence; conditions: for Foxtail, Giant plant response rating: 125 g ai/ha, visual injury rating on 0 to 100 scale (0 no effect, 100 complete control), approx. 10 d; for Plant response rating, Foxtail, Giant: 500 g ai/ha
In short: as §1

Kochia (Kochia scoparia) [9] = assay: Test A postemergence; conditions: for Kochia plant response rating: 125 g ai/ha, visual injury rating on 0 to 100 scale (0 no effect, 100 complete control), approx. 10 d; for Plant response rating, Kochia: 500 g ai/ha
In short: as §1

[10] = system: lambsquarters (Chenopodium album); assay: Test C preemergence; conditions: for Plant response rating, Lambsquarters: scale 0 to 100, 0 no effect, 100 complete control
In short: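 Preemergence application to seeds in loam/sand soil, or foliar (postemergence) application to plants 2–18 cm tall in peat moss/vermiculite medium; surfactant-containing non-phytotoxic solvent vehicle; greenhouse. Visual injury vs controls at 13–15 d; 0 = no effect, 100 = complete control.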

[11] = system: pigweed (Amaranthus retroflexus); assay: Test A preemergence; conditions: for Plant response rating, Pigweed: 125 g ai/ha; for Pigweed plant response rating (0 to 100 scale, 0 is no effect, 100 is complete control): 500 g ai/ha, visual injury approx. 10 d
[12] = system: barnyardgrass (Echinochloa crus-galli); assay: Test A preemergence; conditions: for Plant response rating, Barnyardgrass: 125 g ai/ha; for Barnyardgrass plant response rating (0 to 100 scale, 0 is no effect, 100 is complete control): 500 g ai/ha, visual injury approx. 10 d
In short: as §1

[13] = system: ryegrass, Italian (Italian ryegrass, Lolium multiflorum); assay: Test A preemergence; conditions: for Plant response rating, Ryegrass, Italian: 125 g ai/ha; for Ryegrass, Italian plant response rating (0 to 100 scale, 0 is no effect, 100 is complete control): 500 g ai/ha, visual injury approx. 10 d
In short: as §1

[14] = system: ragweed (common ragweed, Ambrosia elatior); assay: Test A preemergence; conditions: for Plant response rating, Ragweed: 125 g ai/ha; for Ragweed plant response rating (0 to 100 scale, 0 is no effect, 100 is complete control): 500 g ai/ha, visual injury approx. 10 d
In short: as §1

[15] = system: giant foxtail (Setaria faberii); assay: Test A preemergence; conditions: for Plant response rating, Foxtail, Giant: 125 g ai/ha; for Foxtail, Giant plant response rating (0 to 100 scale, 0 is no effect, 100 is complete control): 500 g ai/ha, visual injury approx. 10 d
In short: as §1

Kochia (Kochia scoparia) [16] = assay: Test A preemergence; conditions: for Plant response rating, Kochia: 125 g ai/ha; for Kochia plant response rating (0 to 100 scale, 0 is no effect, 100 is complete control): 500 g ai/ha, visual injury approx. 10 d
In short: as §1

[17] = system: sedge, umbrella (small-flower umbrella sedge, Cyperus difformis); assay: Test B flooded paddy test; conditions: Flood, 250 g ai/ha; 0 to 100 scale where 0 is no effect and 100 is complete control; 13 to 15 d
In short: (§2)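 Flooding to 3 cm over soil accompanied treatment, which consisted of adding compound to the standing water around 2-leaf plants; depth was then maintained. Visual assessment versus controls followed at 13 to 15 d (scale 0–100, 0 meaning no effect).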

[18] = system: barnyardgrass (Echinochloa crus-galli); assay: Test B flooded paddy test; conditions: Flood, 250 g ai/ha; 0 to 100 scale where 0 is no effect and 100 is complete control; 13 to 15 d
In short: as §2

[19] = system: ducksalad (Heteranthera limosa); assay: Test B flooded paddy test; conditions: Flood, 250 g ai/ha; 0 to 100 scale where 0 is no effect and 100 is complete control; 13 to 15 d
In short: as §2

rice (Oryra sativa) = assay: Test B flooded paddy test; conditions: Flood, 250 g ai/ha; 0 to 100 scale where 0 is no effect and 100 is complete control; 13 to 15 d
In short: as §2

[20] = postemergence, 0 to 100 scale, 0 no effect, 100 complete control
[21] = preemergence, 0 to 100 scale (0 no effect, 100 complete control)
[22] = Postemergence, 0 to 100 scale where 0 is no effect and 100 is complete control
[23] = Preemergence, visual injury after approximately 10 d, 0 to 100 scale where 0 is no effect and 100 is complete control

| Structure (SMILES) | Wheat plant response rating ([1]; postemergence) | Pigweed plant response rating ([2]; postemergence) | Barnyardgrass plant response rating ([3]; postemergence) | Ryegrass, Italian plant response rating ([4]; postemergence) | Galium plant response rating ([5]; postemergence) | Corn plant response rating (corn (Zea mays); postemergence) | Blackgrass plant response rating ([6]; postemergence) | Ragweed plant response rating ([7]; postemergence) | Foxtail, Giant plant response rating ([8]; postemergence) | Kochia plant response rating (Kochia (Kochia scoparia) [9]; postemergence) | Plant response rating, Lambsquarters ([10]; 62 g ai/ha) | Plant response rating, Lambsquarters ([10]; 125 g ai/ha) | Plant response rating, Lambsquarters ([10]; 250 g ai/ha) | Pigweed plant response rating (0 to 100 scale, 0 is no effect, 100 is complete control) ([11]; Preemergence) | Barnyardgrass plant response rating (0 to 100 scale, 0 is no effect, 100 is complete control) ([12]; Preemergence) | Ryegrass, Italian plant response rating (0 to 100 scale, 0 is no effect, 100 is complete control) ([13]; Preemergence) | Foxtail, Giant plant response rating (0 to 100 scale, 0 is no effect, 100 is complete control) ([15]; Preemergence) | Kochia plant response rating (0 to 100 scale, 0 is no effect, 100 is complete control) (Kochia (Kochia scoparia) [16]; Preemergence) | Plant response rating, Sedge, Umbrella [17] | Plant response rating, Barnyardgrass [18] | further results |
| --- | --- | --- | --- | --- | --- | --- | --- | --- | --- | --- | --- | --- | --- | --- | --- | --- | --- | --- | --- | --- | --- |
| CN1CC(c2cccc(OC(F)(F)C(F)F)c2)C(C(=O)Nc2ccc(F)c(F)c2F)C1=O (centres unmarked) [Compound 429] | 50 | 70 | 90 | 60 | 70 | 70 | 50 | 30 | 90 | 60 | 75 | 75 | 85 | 80 | 90 | 80 | 100 | 80 | 0 | 65 | Plant response rating, Wheat [1, 20]: 60; Plant response rating, Pigweed [2, 20]: 80; Plant response rating, Barnyardgrass [3, 20]: 90; Plant response rating, Ryegrass, Italian [4, 20]: 80; Plant response rating, Galium [5, 20]: 70; Plant response rating, Corn (corn (Zea mays); [20]): 80; Plant response rating, Blackgrass [6, 20]: 70; Plant response rating, Ragweed [7, 20]: 50; Plant response rating, Foxtail, Giant [8, 20]: 90; Plant response rating, Kochia (Kochia (Kochia scoparia) [9]; [20]): 70; Plant response rating, Lambsquarters ([10]; 31 g ai/ha): 60; Plant response rating, Pigweed [11, 21]: 80; Plant response rating, Barnyardgrass [12, 21]: 90; Plant response rating, Ryegrass, Italian [13, 21]: 70; Plant response rating, Ragweed [14, 21]: 50; Plant response rating, Foxtail, Giant [15, 21]: 90; Plant response rating, Kochia (Kochia (Kochia scoparia) [16]; [21]): 70; Plant response rating, Ducksalad [19]: 100; Plant response rating, Rice (rice (Oryra sativa)): 15 |
| CN1CC(c2cccc(OC(F)(F)C(F)F)c2)C(C(=O)Nc2ccccc2C(F)(F)F)C1=O (centres unmarked) [Compound 431] | 40 | 50 | 80 | 60 | 60 | 60 | 60 | 20 | 80 | 40 | 40 | 50 | 65 | 90 | 90 | 70 | 100 | 70 | 0 | 40 | Plant response rating, Wheat [1, 20]: 60; Plant response rating, Pigweed [2, 20]: 60; Plant response rating, Barnyardgrass [3, 20]: 90; Plant response rating, Ryegrass, Italian [4, 20]: 40; Plant response rating, Galium [5, 20]: 60; Plant response rating, Corn (corn (Zea mays); [20]): 70; Plant response rating, Blackgrass [6, 20]: 60; Plant response rating, Ragweed [7, 20]: 60; Plant response rating, Foxtail, Giant [8, 20]: 90; Plant response rating, Kochia (Kochia (Kochia scoparia) [9]; [20]): 50; Plant response rating, Lambsquarters ([10]; 31 g ai/ha): 10; Plant response rating, Pigweed [11, 21]: 70; Plant response rating, Barnyardgrass [12, 21]: 90; Plant response rating, Ryegrass, Italian [13, 21]: 70; Plant response rating, Ragweed [14, 21]: 40; Ragweed plant response rating (0 to 100 scale, 0 is no effect, 100 is complete control) ([14]; Preemergence): 70; Plant response rating, Foxtail, Giant [15, 21]: 90; Plant response rating, Kochia (Kochia (Kochia scoparia) [16]; [21]): 30; Plant response rating, Ducksalad [19]: 100; Plant response rating, Rice (rice (Oryra sativa)): 25 |
| O=C1NCC(c2cc(F)cc(C(F)(F)F)c2)C1C(=O)Nc1cccc(F)c1F (centres unmarked) [Compound 488] | 50 | 40 | 90 | 30 | 50 | 70 | 60 | 20 | 90 | 30 | 50 | 60 | 60 | 70 | 90 | 70 | 90 | 70 | 0 | 65 | Plant response rating, Wheat [1, 22]: 60; Plant response rating, Pigweed [2, 22]: 50; Plant response rating, Barnyardgrass [3, 22]: 90; Plant response rating, Ryegrass, Italian [4, 22]: 60; Plant response rating, Galium [5, 22]: 50; Plant response rating, Corn (corn (Zea mays); [22]): 80; Plant response rating, Blackgrass [6, 22]: 70; Plant response rating, Ragweed [7, 22]: 20; Plant response rating, Foxtail, Giant [8, 22]: 90; Plant response rating, Kochia (Kochia (Kochia scoparia) [9]; [22]): 60; Plant response rating (scale of 0 to 100), Lambsquarters ([10]; 31 g ai/ha, 0 is no effect, 100 is complete control): 20; Plant response rating, Pigweed [11, 23]: 50; Plant response rating, Barnyardgrass [12, 23]: 90; Plant response rating, Ryegrass, Italian [13, 23]: 30; Plant response rating, Ragweed [14, 23]: 70; Ragweed plant response rating (0 to 100 scale, 0 is no effect, 100 is complete control) ([14]; Preemergence): 80; Plant response rating, Foxtail, Giant [15, 23]: 90; Plant response rating, Kochia (Kochia (Kochia scoparia) [16]; [23]): 70; Plant response rating, Ducksalad [19]: 90; Plant response rating, Rice (rice (Oryra sativa)): 30 |
